The values below come from the supplement of paper PMC10307832.

Experiment in all cases: relative viability (nuclei count vs DMSO), 5 days (fraction); higher = more cells survive
Compound in the assay “Erlotinib + Olaparib”: C#Cc1cccc(Nc2ncnc3cc(OCCOC)c(OCCOC)cc23)c1 [Erlotinib] + O=C(c1cc(Cc2n[nH]c(=O)c3ccccc23)ccc1F)N1CCN(C(=O)C2CC2)CC1 [Olaparib] (partner 8 µM)
Summed up: (§1)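 Nuclei were stained with Hoechst during a one-step fixation (final 0.05% Triton X-100, 1% formaldehyde, 1 ug/ml Hoechst) carried out 5 days after dosing, then counted on 4× images. The cells, lung cancer lines in 1536-well plates, had been dosed by pin tool the day after seeding with one drug alone or a fixed anchor-drug dose plus five library-drug doses (not always all listed) in √10 steps. Relative viability is the nuclei count in treated wells divided by that in vehicle wells, and each value is the median of duplicate plates.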

Compound in the assay “AT9283 + Linsitinib”: O=C(Nc1c[nH]nc1-c1nc2ccc(CN3CCOCC3)cc2[nH]1)NC1CC1 [AT9283] + C[C@]1(O)C[C@@H](c2nc(-c3ccc4ccc(-c5ccccc5)nc4c3)c3c(N)nccn32)C1 [Linsitinib] (partner 1 µM)
Summed up: as §1

Compound in the assay “AT9283 + Alpelisib”: O=C(Nc1c[nH]nc1-c1nc2ccc(CN3CCOCC3)cc2[nH]1)NC1CC1 [AT9283] + Cc1nc(NC(=O)N2CCC[C@H]2C(N)=O)sc1-c1ccnc(C(C)(C)C(F)(F)F)c1 [Alpelisib] (partner 2 µM)
An outline of the steps:
as §1

Compound in the assay “AT9283 + Olaparib”: O=C(Nc1c[nH]nc1-c1nc2ccc(CN3CCOCC3)cc2[nH]1)NC1CC1 [AT9283] + O=C(c1cc(Cc2n[nH]c(=O)c3ccccc23)ccc1F)N1CCN(C(=O)C2CC2)CC1 [Olaparib] (partner 8 µM)
An outline of the steps:
as §1

Compound in the assay “AT9283 + Bortezomib”: O=C(Nc1c[nH]nc1-c1nc2ccc(CN3CCOCC3)cc2[nH]1)NC1CC1 [AT9283] + CC(C)C[C@H](NC(=O)[C@H](Cc1ccccc1)NC(=O)c1cnccn1)B(O)O [Bortezomib] (partner 0.002 µM)
Summed up: as §1

For the cell line NCI-H1944, the relative viability with Erlotinib + Olaparib (first compound 0.02 µM) came to 0.396; with Erlotinib + Olaparib (first compound 0.2 µM), 0.311; with Erlotinib + Olaparib (first compound 0.6325 µM), 0.382; with Erlotinib + Olaparib (first compound 2 µM) it was 0.304; with AT9283 + Linsitinib (first compound 0.003 µM), 1.17; in the assay with AT9283 + Linsitinib (first compound 0.03 µM), 0.973. Moreover, the relative viability was 0.528 with AT9283 + Linsitinib (first compound 0.09487 µM); 0.331 with AT9283 + Linsitinib (first compound 0.3 µM); 0.792 in the assay with AT9283 + Alpelisib (first compound 0.003 µM); 0.621 with AT9283 + Alpelisib (first compound 0.03 µM); 0.255 in the assay with AT9283 + Alpelisib (first compound 0.09487 µM); 0.275 with AT9283 + Alpelisib (first compound 0.3 µM). Also, the relative viability amounted to 0.401 with AT9283 + Olaparib (first compound 0.003 µM), 0.361 with AT9283 + Olaparib (first compound 0.03 µM), 0.205 in the assay with AT9283 + Olaparib (first compound 0.09487 µM) and 0.206 in the assay with AT9283 + Olaparib (first compound 0.3 µM).
Turning to LK-2, the relative viability with Erlotinib + Olaparib (first compound 0.02 µM) came out at 0.914; with Erlotinib + Olaparib (first compound 0.2 µM), 0.706; with Erlotinib + Olaparib (first compound 0.6325 µM) it was 0.804; with Erlotinib + Olaparib (first compound 2 µM), 0.611; with AT9283 + Linsitinib (first compound 0.003 µM), 0.341; in the assay with AT9283 + Linsitinib (first compound 0.03 µM), 0.351. Also, the relative viability is 0.129 in the assay with AT9283 + Linsitinib (first compound 0.09487 µM); 0.127 with AT9283 + Linsitinib (first compound 0.3 µM); 0.936 with AT9283 + Alpelisib (first compound 0.003 µM); 0.379 with AT9283 + Alpelisib (first compound 0.03 µM); 0.21 in the assay with AT9283 + Alpelisib (first compound 0.09487 µM); 0.236 with AT9283 + Alpelisib (first compound 0.3 µM). The relative viability with AT9283 + Olaparib (first compound 0.003 µM) was 0.742; with AT9283 + Olaparib (first compound 0.03 µM) it was 0.312; with AT9283 + Olaparib (first compound 0.09487 µM) it was 0.113; with AT9283 + Olaparib (first compound 0.3 µM), 0.103.
NCI-H1395: the relative viability in the assay with Erlotinib + Olaparib (first compound 0.02 µM) came out at 0.465; with Erlotinib + Olaparib (first compound 0.2 µM) it was 0.43; with Erlotinib + Olaparib (first compound 0.6325 µM), 0.426; in the assay with Erlotinib + Olaparib (first compound 2 µM), 0.432; with AT9283 + Linsitinib (first compound 0.003 µM), 1.08; in the assay with AT9283 + Linsitinib (first compound 0.03 µM) it was 0.901. In addition, the relative viability was 0.373 with AT9283 + Linsitinib (first compound 0.09487 µM); 0.383 with AT9283 + Linsitinib (first compound 0.3 µM); 1 with AT9283 + Alpelisib (first compound 0.003 µM); 0.804 with AT9283 + Alpelisib (first compound 0.03 µM); 0.409 in the assay with AT9283 + Alpelisib (first compound 0.09487 µM); 0.431 with AT9283 + Alpelisib (first compound 0.3 µM). Also, the relative viability in the assay with AT9283 + Olaparib (first compound 0.003 µM) stood at 0.414; with AT9283 + Olaparib (first compound 0.03 µM), 0.46; with AT9283 + Olaparib (first compound 0.09487 µM) it was 0.38; with AT9283 + Olaparib (first compound 0.3 µM), 0.358.
As for NCI-H1650, the relative viability turned out to be 0.821 in the assay with Erlotinib + Olaparib (first compound 0.02 µM); 0.685 with Erlotinib + Olaparib (first compound 0.2 µM); 0.61 with Erlotinib + Olaparib (first compound 0.6325 µM); 0.644 with Erlotinib + Olaparib (first compound 2 µM); 0.206 with AT9283 + Bortezomib (first compound 0.003 µM); 0.222 in the assay with AT9283 + Bortezomib (first compound 0.03 µM). For the same cell line, the relative viability with AT9283 + Bortezomib (first compound 0.09487 µM) was 0.231; in the assay with AT9283 + Bortezomib (first compound 0.3 µM), 0.215; with AT9283 + Olaparib (first compound 0.003 µM), 0.759; with AT9283 + Olaparib (first compound 0.03 µM), 0.808; in the assay with AT9283 + Olaparib (first compound 0.09487 µM), 0.693; in the assay with AT9283 + Olaparib (first compound 0.3 µM) it was 0.48.
For the cell line NCI-H1563, the relative viability in the assay with AT9283 + Bortezomib (first compound 0.003 µM) was 0.859; in the assay with AT9283 + Bortezomib (first compound 0.03 µM), 0.79; with AT9283 + Bortezomib (first compound 0.09487 µM), 0.822; in the assay with AT9283 + Bortezomib (first compound 0.3 µM), 0.703; with AT9283 + Linsitinib (first compound 0.003 µM) it was 1.26; with AT9283 + Linsitinib (first compound 0.03 µM), 0.892. For the same cell line, the relative viability with AT9283 + Linsitinib (first compound 0.09487 µM) is 0.832; in the assay with AT9283 + Linsitinib (first compound 0.3 µM) it was 0.757; with AT9283 + Alpelisib (first compound 0.003 µM), 1.08; with AT9283 + Alpelisib (first compound 0.03 µM) it was 0.81; with AT9283 + Alpelisib (first compound 0.09487 µM), 0.732; with AT9283 + Alpelisib (first compound 0.3 µM), 0.628.
Consider NCI-H358, for which the relative viability was determined as 0.583 with Erlotinib + Olaparib (first compound 0.02 µM); 0.599 in the assay with Erlotinib + Olaparib (first compound 0.2 µM); 0.403 in the assay with Erlotinib + Olaparib (first compound 0.6325 µM); 0.199 in the assay with Erlotinib + Olaparib (first compound 2 µM); 0.447 with AT9283 + Linsitinib (first compound 0.003 µM); 0.142 with AT9283 + Linsitinib (first compound 0.03 µM). The relative viability is 0.12 in the assay with AT9283 + Linsitinib (first compound 0.09487 µM); 0.17 with AT9283 + Linsitinib (first compound 0.3 µM); 0.901 with AT9283 + Alpelisib (first compound 0.003 µM); 0.171 with AT9283 + Alpelisib (first compound 0.03 µM); 0.163 with AT9283 + Alpelisib (first compound 0.09487 µM); 0.152 in the assay with AT9283 + Alpelisib (first compound 0.3 µM). In addition, the relative viability with AT9283 + Olaparib (first compound 0.003 µM) was 0.513; with AT9283 + Olaparib (first compound 0.03 µM), 0.202; with AT9283 + Olaparib (first compound 0.09487 µM), 0.091; with AT9283 + Olaparib (first compound 0.3 µM), 0.105.
Regarding NCI-H2170, the relative viability in the assay with Erlotinib + Olaparib (first compound 0.02 µM) was 0.651; in the assay with Erlotinib + Olaparib (first compound 0.2 µM) it was 0.602; in the assay with Erlotinib + Olaparib (first compound 0.6325 µM) it was 0.476; in the assay with Erlotinib + Olaparib (first compound 2 µM), 0.309; in the assay with AT9283 + Alpelisib (first compound 0.003 µM), 0.806; with AT9283 + Alpelisib (first compound 0.03 µM), 0.638. In addition, the relative viability with AT9283 + Alpelisib (first compound 0.09487 µM) came to 0.205; with AT9283 + Alpelisib (first compound 0.3 µM), 0.217; in the assay with AT9283 + Olaparib (first compound 0.003 µM) it was 0.613; in the assay with AT9283 + Olaparib (first compound 0.03 µM), 0.385; in the assay with AT9283 + Olaparib (first compound 0.09487 µM), 0.14; with AT9283 + Olaparib (first compound 0.3 µM), 0.146.
Turning to NCI-H2342, the relative viability with Erlotinib + Olaparib (first compound 0.02 µM) was determined as 0.378; with Erlotinib + Olaparib (first compound 0.2 µM) it was 0.425; with Erlotinib + Olaparib (first compound 0.6325 µM) it was 0.462; with Erlotinib + Olaparib (first compound 2 µM), 0.383; in the assay with AT9283 + Olaparib (first compound 0.003 µM), 0.476; with AT9283 + Olaparib (first compound 0.03 µM), 0.434. For the same cell line, the relative viability with AT9283 + Olaparib (first compound 0.09487 µM) worked out at 0.384; in the assay with AT9283 + Olaparib (first compound 0.3 µM), 0.292.
For the cell line NCI-H1793, the relative viability with Erlotinib + Olaparib (first compound 0.02 µM) was 0.819; in the assay with Erlotinib + Olaparib (first compound 0.2 µM), 0.391; with Erlotinib + Olaparib (first compound 0.6325 µM) it was 0.686; in the assay with Erlotinib + Olaparib (first compound 2 µM), 0.436; with AT9283 + Linsitinib (first compound 0.003 µM), 0.941; with AT9283 + Linsitinib (first compound 0.03 µM), 0.859. The relative viability with AT9283 + Linsitinib (first compound 0.09487 µM) worked out at 0.339; with AT9283 + Linsitinib (first compound 0.3 µM) it was 0.209; with AT9283 + Alpelisib (first compound 0.003 µM), 0.642; in the assay with AT9283 + Alpelisib (first compound 0.03 µM) it was 0.871; with AT9283 + Alpelisib (first compound 0.09487 µM) it was 0.363; in the assay with AT9283 + Alpelisib (first compound 0.3 µM) it was 0.254. The relative viability is 0.986 with AT9283 + Olaparib (first compound 0.003 µM), 0.841 with AT9283 + Olaparib (first compound 0.03 µM), 0.451 in the assay with AT9283 + Olaparib (first compound 0.09487 µM) and 0.257 with AT9283 + Olaparib (first compound 0.3 µM).
For SW 900, the relative viability with Erlotinib + Olaparib (first compound 0.02 µM) amounted to 0.907; in the assay with Erlotinib + Olaparib (first compound 0.2 µM), 0.846; in the assay with Erlotinib + Olaparib (first compound 0.6325 µM), 0.84; in the assay with AT9283 + Olaparib (first compound 0.003 µM), 0.882; with AT9283 + Olaparib (first compound 0.03 µM), 0.783; with AT9283 + Olaparib (first compound 0.09487 µM), 0.507. In addition, the relative viability with AT9283 + Olaparib (first compound 0.3 µM) was found to be 0.312.
As to ChaGo-K-1, the relative viability was determined as 0.426 with Erlotinib + Olaparib (first compound 0.02 µM); 0.466 in the assay with Erlotinib + Olaparib (first compound 0.2 µM); 0.391 in the assay with Erlotinib + Olaparib (first compound 0.6325 µM); 0.402 with Erlotinib + Olaparib (first compound 2 µM); 0.889 in the assay with AT9283 + Bortezomib (first compound 0.003 µM); 0.908 with AT9283 + Bortezomib (first compound 0.03 µM). Moreover, the relative viability with AT9283 + Bortezomib (first compound 0.09487 µM) stood at 0.356; in the assay with AT9283 + Bortezomib (first compound 0.3 µM) it was 0.303; with AT9283 + Olaparib (first compound 0.003 µM), 0.444; in the assay with AT9283 + Olaparib (first compound 0.03 µM), 0.352; with AT9283 + Olaparib (first compound 0.09487 µM), 0.252; with AT9283 + Olaparib (first compound 0.3 µM) it was 0.203.
